Consider two molecules from patent US20200054651A1, “COMPOSITIONS AND METHODS FOR MODULATING PPP2R1A” (The Regents of the University of California, priority 2017, published 2020).

In test [1] the target is T1, pure human PPP2R1A protein (Homo sapiens, UniProt P30153).
T1 construct: purchased Origene
The test is described as follows: Gel-based ABPP, competition against IAyne labeling. Particulars: 30 min at 37° C. pre-treatment, IAyne labeling. It is filed as binding. The method, then:
Gel-based ABPP methods were performed using the methods described in “Chem Biol 22(10), 1394-1405 (2015)” by Medina-Cleghorn D., et al. Recombinant pure human proteins were purchased from Origene. Pure proteins were pre-treated with DMSO, Withaferin A, or acrylamide or chloroacetamide compounds (e.g., DKM 2-90 or JNS 1-40) for 30 minutes at 37° C. in an incubation volume of PBS (50 μL), and were subsequently treated with IAyne (10 μM final concentration) for 30 minutes at room temperature. CuAAC was performed to append rhodamine-azide onto IAyne probe-labeled proteins. The samples were separated by SDS/PAGE and scanned using a ChemiDoc MP. Inhibition of target labeling was assessed by densitometry using ImageStudio Light software.

Test [2] relates to 231MFP breast cancer cells. The test is described as follows: 231MFP cell proliferation (Hoechst staining). The class given is cell-based. Particulars: 100 μM, 48 h, 231MFP.

T1 sequence (P30153 whole entry): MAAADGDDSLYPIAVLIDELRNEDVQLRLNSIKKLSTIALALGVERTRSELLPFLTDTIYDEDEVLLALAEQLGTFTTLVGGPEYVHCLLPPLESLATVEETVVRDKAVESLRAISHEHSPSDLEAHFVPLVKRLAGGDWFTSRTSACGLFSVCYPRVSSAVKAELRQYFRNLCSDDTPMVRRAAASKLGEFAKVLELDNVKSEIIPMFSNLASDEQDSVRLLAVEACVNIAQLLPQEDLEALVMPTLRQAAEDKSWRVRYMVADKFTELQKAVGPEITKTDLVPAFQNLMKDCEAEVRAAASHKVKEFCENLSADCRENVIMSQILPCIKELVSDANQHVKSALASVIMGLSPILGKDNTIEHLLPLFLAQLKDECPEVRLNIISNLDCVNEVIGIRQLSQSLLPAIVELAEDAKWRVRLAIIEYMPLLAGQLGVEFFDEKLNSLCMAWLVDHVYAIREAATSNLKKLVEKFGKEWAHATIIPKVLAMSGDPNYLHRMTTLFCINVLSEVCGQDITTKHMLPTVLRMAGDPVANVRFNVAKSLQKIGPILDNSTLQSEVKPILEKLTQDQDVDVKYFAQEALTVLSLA

Turning to `O=C(CCl)Nc1ccc2c(c1)CCCC2` [JNS 1-37, 2-Chloro-N-(5,6,7,8-tetrahydronaphthalen-2-yl)acetamide], in test [1], the IC50 (in general, the concentration at which inhibition is half-maximal) turned out to be 300 µM.
Regarding `O=C(CCl)Nc1cccc2c1CCC2` [DKM 2-91], the cell proliferation result in test [2] was “lead compounds”.
